Test system: maize plants
Assay: Chill-stress experiment (greenhouse) with maize plants, pre-emergence treatment
Type: in vivo, maize cv. Lorenzo
Settings: for Number of damaged plants (chloroses): chill stress 6 h at −2° C, 20 plants per group
Description: Maize seeds cv. Lorenzo were sown into 10-cm-pots into compost at a rate of 10 seeds per pot. All experimental groups consisted of in each case 4 pots. The sown seeds of test groups 1 and 2 were sprayed pre-emergence with 50 and 100 [g a.i./ha], respectively, of the compound 4-cyclopropylaminocarbonyl-N-(2-methoxybenzoyl)benzenesulfonamide (=VIII-3). The seeds of the control group remained untreated. The plants were raised under controlled conditions in a controlled-environment chamber [white light (long day: 16 h light, 8 h dark), 22° C. day-time temperature, 14° C. night-time temperature, 60% atmospheric humidity].
After germination, when the plants had attained a length of approx. 1 cm, 2 pots from each group were incubated for 6 h in a different controlled-environment chamber under chill-stress conditions at −2° C. Thereafter, these plants were returned to the others in the first controlled-environment chamber.
To evaluate the experiment quantitatively, the plants with chloroses of the leaf tips were counted. The total number of the plants per test group and cold stress treatment was 20, provided over 2 pots in each case.

COc1ccccc1C(=O)NS(=O)(=O)c1ccc(C(=O)NC2CC2)cc1 [VIII-3, 4-cyclopropylaminocarbonyl-N-(2-methoxybenzoyl)benzenesulfonamide]
Number of damaged plants (chloroses) (50 g a.i./ha pre-emergence): 1
Number of damaged plants (chloroses) (100 g a.i./ha pre-emergence): 0
occurrence of chill stress damage symptoms (at the higher dosage rate): completely prevents
chloroses at the leaf tips after chill stress (plants treated with the active substance, 24 hours after chill stress): either absent or only very weakly pronounced
plants showing damage symptoms (test groups kept exclusively under standard conditions without chill stress): None
damage symptoms which are the result of chill stress (treatment with the active substance (lower dosage rate)): markedly reduce
